# From publication PMC11881160 (International Journal of Nanomedicine, 2025)
# Marks after values point to notes of the source that are not given here.
# Key:
# [1] = In vitro dissolution test; type: physicochemical; conditions: 100 rpm, n=3
# [2] = PBPK model input; ATV value marked (acid); ref Drugbank; cited from earlier work
# [3] = stated in the discussion without reference; species not given; cited from earlier work
# [4] = Pharmacokinetic study of LUT and LUT-NS-LP in rats; type: in vivo, Sprague-Dawley (SD) rats
# [5] = test system: CYP450s of Rat Liver Microsomes (RLMs); assay: In vitro CYP450 metabolism of ATV and inhibition by LUT in rat liver microsomes; conditions: CYP450s mixture of RLMs, Lineweaver-Burk plots
# [6] = male, Sprague-Dawley, rat, plasma, po, 200 mg/kg
compound,measurement,setting,value
"O=c1cc(-c2ccc(O)c(O)c2)oc2cc(O)cc(O)c12 [LUT, Luteolin]",Drug release,"[1]; pH 1.2 buffer containing 0.05% Tween 80, after 120 min, 37°C",36.58 ± 0.99%
same,Drug release,"[1]; pH 6.8 phosphate buffer containing 0.05% Tween 80, 37°C",59.10 ± 3.13%
same,pKa,[2],6.57^a
same,Oral absolute bioavailability,[3],under 5%
same,AUC(0-inf),[4]; [6],4230 ± 1510 ng·h/mL
same,AUC(0-t),[4]; [6],3840 ± 1390 ng·h/mL
same,CL/F,[4]; [6],880 mL/min/kg
same,Cmax,[4]; [6],1140 ± 320 ng/mL
same,MRT inf,[4]; [6],4.02 ± 1.68 h
same,MRT last,[4]; [6],2.88 ± 0.96 h
same,Tmax,[4]; [6],0.92 ± 0.59 h
same,Vd/F,[4]; [6],178 ± 85.1 L/kg
same,half-life,[4]; [6],2.6 ± 1.52 h
same,F (bioavailability),"[4]; relative to LUT, rats, oral 200 mg/kg",1 fold
same,Form of inhibition of ATV metabolism by LUT,[5],non-competitive
